Activity calls are given as the source filed them. The calls are words filed in the database; no cut-off is given here.
The compounds below were run on Rattus norvegicus (assay: Neurotoxicity in MES Sprague-Dawley rat model at 30 mg/kg, po measured after 1 hr). Details: in vivo.
Assay type: toxicity, organism-based
Parameters: dose 30 mg/kg, route oral
In the case of O=C1NC(=O)[C@@H]2CCCN2[C@H]1c1cccc(F)c1, the Activity was “Non-toxic”.

These compounds were tested on Mus musculus (assay: Neurotoxicity in albino CF1 mouse at 100 mg/kg, ip measured after 1 hr). Details: in vivo.
Assay type: toxicity, organism-based
Parameters: dose 100 mg/kg, route intraperitoneal
In the case of O=C1NC(=O)[C@@H]2CCCN2[C@H]1c1cccc(F)c1, the Activity was “Non-toxic”.

What follows are compounds tested on Rattus norvegicus (assay: Neurotoxicity in MES Sprague-Dawley rat model at 30 mg/kg, po measured after 4 hrs). Details: in vivo.
Assay type: toxicity, organism-based
Parameters: dose 30 mg/kg, route oral
In the case of O=C1NC(=O)[C@@H]2CCCN2[C@H]1c1cccc(F)c1, the Activity was “Non-toxic”.

These compounds were tested on Rattus norvegicus (assay: Anticonvulsant activity in Sprague-Dawley rat assessed as protection against maximal electroshock-induced seizures at 30 mg/kg, po measured after 2 hrs). Details: not given.
Assay type: functional, organism-based
Parameters: dose 30 mg/kg
For O=C1NC(=O)[C@@H]2CCCN2[C@H]1c1cccc(F)c1, the Activity was “inactive”.

Each compound was assayed on Mus musculus (assay: Neurotoxicity in albino CF1 mouse at 100 mg/kg, ip measured after 4 hrs). Details: in vivo.
Assay type: toxicity, organism-based
Parameters: dose 100 mg/kg, route intraperitoneal
O=C1NC(=O)[C@@H]2CCCN2[C@H]1c1cccc(F)c1 was tested, and the Activity was “Non-toxic”.

Each compound was assayed on Rattus norvegicus (assay: Anticonvulsant activity in Sprague-Dawley rat assessed as protection against maximal electroshock-induced seizures at 30 mg/kg, po measured after 0.25 hr). Details: not given.
Assay type: functional, organism-based
Parameters: dose 30 mg/kg
With O=C1NC(=O)[C@@H]2CCCN2[C@H]1c1cccc(F)c1 the Activity was “inactive”.

Each compound was assayed on Mus musculus (assay: Anticonvulsant activity in albino CF1 mouse assessed as protection against subcutaneous metrazol-induced seizures at 100 mg/kg, ip measured after 1 hr). Details: not given.
Assay type: functional, organism-based
Parameters: dose 100 mg/kg
With O=C1NC(=O)[C@@H]2CCCN2[C@H]1c1cccc(F)c1 the Activity was “inactive”.

What follows are compounds tested on Mus musculus (assay: Neurotoxicity in albino CF1 mouse at 100 mg/kg, ip measured after 0.5 hr). Details: in vivo.
Assay type: toxicity, organism-based
Parameters: dose 100 mg/kg, route intraperitoneal
For O=C1NC(=O)[C@@H]2CCCN2[C@H]1c1cccc(F)c1, the Activity was “Non-toxic”.

What follows are compounds tested on Mus musculus (assay: Anticonvulsant activity in albino CF1 mouse assessed as protection against 32 mA current-induced seizures at 100 mg/kg, ip measured after 2 hrs). Details: not given.
Assay type: functional, organism-based
Parameters: dose 100 mg/kg
For O=C1NC(=O)[C@@H]2CCCN2[C@H]1c1cccc(F)c1, the Activity was “inactive”.

The compounds below were run on Mus musculus (assay: Anticonvulsant activity in albino CF1 mouse assessed as protection against 32 mA current-induced seizures at 100 mg/kg, ip measured after 4 hrs). Details: not given.
Assay type: functional, organism-based
Parameters: dose 100 mg/kg
For O=C1NC(=O)[C@@H]2CCCN2[C@H]1c1cccc(F)c1, the Activity was “inactive”.

The compounds below were run on Mus musculus (assay: Anticonvulsant activity in albino CF1 mouse assessed as protection against maximal electroshock-induced seizures at 100 mg/kg, ip measured after 0.5 hr). Details: not given.
Assay type: functional, organism-based
Parameters: dose 100 mg/kg
O=C1NC(=O)[C@@H]2CCCN2[C@H]1c1cccc(F)c1 was tested, and the Activity was “Active”.

What follows are compounds tested on Mus musculus (assay: Anticonvulsant activity in albino CF1 mouse assessed as protection against subcutaneous metrazol-induced seizures at 100 mg/kg, ip measured after 0.5 hr). Details: not given.
Assay type: functional, organism-based
Parameters: dose 100 mg/kg
In the case of O=C1NC(=O)[C@@H]2CCCN2[C@H]1c1cccc(F)c1, the Activity was “Active”.

Each compound was assayed on Mus musculus (assay: Anticonvulsant activity in albino CF1 mouse assessed as protection against 32 mA current-induced seizures at 100 mg/kg, ip measured after 0.5 hr). Details: not given.
Assay type: functional, organism-based
Parameters: dose 100 mg/kg
In the case of O=C1NC(=O)[C@@H]2CCCN2[C@H]1c1cccc(F)c1, the Activity was “Active”.

These compounds were tested on Mus musculus (assay: Anticonvulsant activity in albino CF1 mouse assessed as protection against subcutaneous metrazol-induced seizures at 100 mg/kg, ip measured after 0.25 hr). Details: not given.
Assay type: functional, organism-based
Parameters: dose 100 mg/kg
For O=C1NC(=O)[C@@H]2CCCN2[C@H]1c1cccc(F)c1, the Activity was “Active”.

These compounds were tested on Rattus norvegicus (assay: Neurotoxicity in MES Sprague-Dawley rat model at 30 mg/kg, po measured after 0.25 hr). Details: in vivo.
Assay type: toxicity, organism-based
Parameters: dose 30 mg/kg, route oral
For O=C1NC(=O)[C@@H]2CCCN2[C@H]1c1cccc(F)c1, the Activity was “Non-toxic”.

These compounds were tested on Mus musculus (assay: Neurotoxicity in 32 mA current-induced seizure albino CF1 mouse model at 100 mg/kg, ip measured after 0.25 hr). Details: in vivo.
Assay type: toxicity, organism-based
Parameters: dose 100 mg/kg, route intraperitoneal
In the case of O=C1NC(=O)[C@@H]2CCCN2[C@H]1c1cccc(F)c1, the Activity was “Non-toxic”.

These compounds were tested on Mus musculus (assay: Neurotoxicity in 32 mA current-induced seizure albino CF1 mouse model at 100 mg/kg, ip measured after 2 hrs). Details: in vivo.
Assay type: toxicity, organism-based
Parameters: dose 100 mg/kg, route intraperitoneal
For O=C1NC(=O)[C@@H]2CCCN2[C@H]1c1cccc(F)c1, the Activity was “Non-toxic”.

What follows are compounds tested on Rattus norvegicus (assay: Anticonvulsant activity in Sprague-Dawley rat assessed as protection against maximal electroshock-induced seizures at 30 mg/kg, po measured after 1 hr). Details: not given.
Assay type: functional, organism-based
Parameters: dose 30 mg/kg
In the case of O=C1NC(=O)[C@@H]2CCCN2[C@H]1c1cccc(F)c1, the Activity was “inactive”.

What follows are compounds tested on Mus musculus (assay: Neurotoxicity in 32 mA current-induced seizure albino CF1 mouse model at 100 mg/kg, ip measured after 0.5 hr). Details: in vivo.
Assay type: toxicity, organism-based
Parameters: dose 100 mg/kg, route intraperitoneal
In the case of O=C1NC(=O)[C@@H]2CCCN2[C@H]1c1cccc(F)c1, the Activity was “Non-toxic”.

What follows are compounds tested on Rattus norvegicus (assay: Anticonvulsant activity in Sprague-Dawley rat assessed as protection against maximal electroshock-induced seizures at 30 mg/kg, po measured after 4 hrs). Details: not given.
Assay type: functional, organism-based
Parameters: dose 30 mg/kg
With O=C1NC(=O)[C@@H]2CCCN2[C@H]1c1cccc(F)c1 the Activity was “inactive”.

These compounds were tested on Mus musculus (assay: Anticonvulsant activity in albino CF1 mouse assessed as protection against maximal electroshock-induced seizures at 100 mg/kg, ip measured after 1 hr). Details: not given.
Assay type: functional, organism-based
Parameters: dose 100 mg/kg
For O=C1NC(=O)[C@@H]2CCCN2[C@H]1c1cccc(F)c1, the Activity was “inactive”.

Each compound was assayed on Mus musculus (assay: Anticonvulsant activity in albino CF1 mouse assessed as protection against maximal electroshock-induced seizures at 100 mg/kg, ip measured after 4 hrs). Details: not given.
Assay type: functional, organism-based
Parameters: dose 100 mg/kg
With O=C1NC(=O)[C@@H]2CCCN2[C@H]1c1cccc(F)c1 the Activity was “inactive”.

Each compound was assayed on Mus musculus (assay: Anticonvulsant activity in albino CF1 mouse assessed as protection against 32 mA current-induced seizures at 100 mg/kg, ip measured after 1 hr). Details: not given.
Assay type: functional, organism-based
Parameters: dose 100 mg/kg
For O=C1NC(=O)[C@@H]2CCCN2[C@H]1c1cccc(F)c1, the Activity was “inactive”.

The compounds below were run on Rattus norvegicus (assay: Anticonvulsant activity in Sprague-Dawley rat assessed as protection against maximal electroshock-induced seizures at 30 mg/kg, po measured after 0.5 hr). Details: not given.
Assay type: functional, organism-based
Parameters: dose 30 mg/kg
In the case of O=C1NC(=O)[C@@H]2CCCN2[C@H]1c1cccc(F)c1, the Activity was “inactive”.

These compounds were tested on Mus musculus (assay: Neurotoxicity in 32 mA current-induced seizure albino CF1 mouse model at 100 mg/kg, ip measured after 1 hr). Details: in vivo.
Assay type: toxicity, organism-based
Parameters: dose 100 mg/kg, route intraperitoneal
For O=C1NC(=O)[C@@H]2CCCN2[C@H]1c1cccc(F)c1, the Activity was “Non-toxic”.

Each compound was assayed on Mus musculus (assay: Anticonvulsant activity in albino CF1 mouse assessed as protection against 32 mA current-induced seizures at 100 mg/kg, ip measured after 0.25 hr). Details: not given.
Assay type: functional, organism-based
Parameters: dose 100 mg/kg
With O=C1NC(=O)[C@@H]2CCCN2[C@H]1c1cccc(F)c1 the Activity was “Active”.

The compounds below were run on Mus musculus (assay: Anticonvulsant activity in albino CF1 mouse assessed as protection against maximal electroshock-induced seizures at 100 mg/kg, ip measured after 0.25 hr). Details: not given.
Assay type: functional, organism-based
Parameters: dose 100 mg/kg
With O=C1NC(=O)[C@@H]2CCCN2[C@H]1c1cccc(F)c1 the Activity was “Active”.

The compounds below were run on Mus musculus (assay: Neurotoxicity in albino CF1 mouse at 100 mg/kg, ip measured after 0.25 hr). Details: in vivo.
Assay type: toxicity, organism-based
Parameters: dose 100 mg/kg, route intraperitoneal
O=C1NC(=O)[C@@H]2CCCN2[C@H]1c1cccc(F)c1 was tested, and the Activity was “Non-toxic”.

What follows are compounds tested on Rattus norvegicus (assay: Neurotoxicity in MES Sprague-Dawley rat model at 30 mg/kg, po measured after 0.5 hr). Details: in vivo.
Assay type: toxicity, organism-based
Parameters: dose 30 mg/kg, route oral
O=C1NC(=O)[C@@H]2CCCN2[C@H]1c1cccc(F)c1 was tested, and the Activity was “Non-toxic”.

What follows are compounds tested on Mus musculus (assay: Anticonvulsant activity in albino CF1 mouse assessed as protection against subcutaneous metrazol-induced seizures at 100 mg/kg, ip measured after 4 hrs). Details: not given.
Assay type: functional, organism-based
Parameters: dose 100 mg/kg
For O=C1NC(=O)[C@@H]2CCCN2[C@H]1c1cccc(F)c1, the Activity was “inactive”.

Each compound was assayed on Rattus norvegicus (assay: Neurotoxicity in MES Sprague-Dawley rat model at 30 mg/kg, po measured after 2 hrs). Details: in vivo.
Assay type: toxicity, organism-based
Parameters: dose 30 mg/kg, route oral
In the case of O=C1NC(=O)[C@@H]2CCCN2[C@H]1c1cccc(F)c1, the Activity was “Non-toxic”.

What follows are compounds tested on Mus musculus (assay: Neurotoxicity in 32 mA current-induced seizure albino CF1 mouse model at 100 mg/kg, ip measured after 4 hrs). Details: in vivo.
Assay type: toxicity, organism-based
Parameters: dose 100 mg/kg, route intraperitoneal
O=C1NC(=O)[C@@H]2CCCN2[C@H]1c1cccc(F)c1 was tested, and the Activity was “Non-toxic”.

— ChEMBL document CHEMBL3352057, “Novel fluorinated pyrrolo[1,2-a]pyrazine-2,6-dione derivatives: synthesis and anticonvulsant evaluation in animal models of epilepsy” (Bioorg Med Chem, 2014)
